Data on eight compounds can be found in PMC12097107, “Identification and Biological Evaluation of a Novel CLK4 Inhibitor Targeting Alternative Splicing in Pancreatic Cancer Using Structure‐Based Virtual Screening” (Advanced Science, 2025).

Test [1] concerns the target T1, CLK4 (Cdc-like kinase 4; Cdc2-like kinase 4) (Homo sapiens, UniProt Q9HAZ1). Kind of test: LanthaScreen Eu kinase binding assay (FRET). The source says: (§1) LanthaScreen Eu kinase binding assay (FRET) on CLK4 (Cdc-like kinase 4; Cdc2-like kinase 4)
(In general: In TR-FRET formats the signal depends on donor and acceptor labels being close together.)

Test [2] deals with T2, CLK2 (Homo sapiens, UniProt P49760).
T2 construct: Thermo Fisher SelectScreen panel kinase
Nature of the test: biochemical. Also on record: Thermo Fisher SelectScreen kinase assays (LanthaScreen Eu binding, Adapta or Z'LYTE), per cent inhibition. As to the method:
(§2) Enzyme‐based assays were carried out by Thermo Fisher Scientific (Waltham, MA, USA). Thermo Fisher Scientific utilizes LanthaScreen Eu Kinase Binding Assay Technology (www.thermofisher.com/lanthascreen), which is based on fluorescence resonance energy transfer (FRET), to conduct the kinase activity assays. Fluorescent receptor dyes are conjugated to the kinase, and an Eu‐labeled anti‐tag antibody is added to detect the phosphorylated fluorescein‐labeled substrate. The fluorescence‐labeled kinase, antibody, and test compounds are combined in an appropriate buffer solution. After incubation, the mixture is placed in a fluorescent plate reader capable of detecting FRET signals. FRET efficiency is calculated by comparing the ratio of the acceptor emission to the donor emission. The selected compounds were evaluated at specified concentrations, and IC50 values were determined using GraphPad Prism software (La Jolla, CA, USA). Each enzymatic activity assay was performed in duplicate, following the quality control guidelines of Thermo Fisher Scientific. Kinase profiling was carried out using the SelectScreen kinase profiling service provided by Thermo Fisher Scientific, with supplementary assays such as Adapta and Z'LYTE included when available for the respective kinases. The detailed protocols are available at the following links: www.thermofisher.com/adapta and https://www.thermofisher.com/z‐lyte. Selectivity is essential for kinase inhibitors to minimize off‐target effects and reduce adverse reactions. Selective inhibitors also enable researchers to better understand the specific functions of targets like CLK4 in physiological and pathological pathways. Therefore, we further evaluated the selectivity of compound 150441 using kinase profiling analysis. The compound was tested at a concentration of 30 nM against a panel of 60 kinases from various families using Thermo Fisher SelectScreen kinase profiling services (Figure 7 ). […] In addition, CLKs comprise four isoforms: CLK1, CLK2, CLK3, and CLK4.

In test [3] the target is T3, CLK3 (Homo sapiens, UniProt P49761).
T3 construct: Thermo Fisher SelectScreen panel kinase
Kind of test: biochemical. Also on record: Thermo Fisher SelectScreen kinase assays (LanthaScreen Eu binding, Adapta or Z'LYTE), per cent inhibition. The procedure: as §2

Test [4] has as its target T1, CLK4 (Cdc-like kinase 4; Cdc2-like kinase 4). Kind of test: biochemical. Also on record: Thermo Fisher SelectScreen kinase assays (LanthaScreen Eu binding, Adapta or Z'LYTE), per cent inhibition. As to the method: as §2
In test [5] the target is T4, CLK1 (Homo sapiens, UniProt P49759).
T4 construct: Thermo Fisher SelectScreen panel kinase
Kind of test: biochemical. Also on record: Thermo Fisher SelectScreen kinase assays (LanthaScreen Eu binding, Adapta or Z'LYTE), per cent inhibition. The procedure:
as §2

Test [6] addresses T1, CLK4 (Cdc-like kinase 4; Cdc2-like kinase 4). Nature of the test: LanthaScreen Eu kinase binding assay (FRET). The format is biochemical.
Source text: as §1

The target of test [7] is T3, CLK3. Nature of the test: SelectScreen kinase profiling (assay format per kinase not given). The format is biochemical. The note with it: read-out: % inhibition at 30 nM.
In test [8] the target is T4, CLK1. The description is as above. The format is biochemical. The note with it: read-out: % inhibition at 30 nM.
The target of test [9] is T2, CLK2. The description is as above. The format is biochemical. The note with it: read-out: % inhibition at 30 nM.

T3 sequence (P49761 whole entry): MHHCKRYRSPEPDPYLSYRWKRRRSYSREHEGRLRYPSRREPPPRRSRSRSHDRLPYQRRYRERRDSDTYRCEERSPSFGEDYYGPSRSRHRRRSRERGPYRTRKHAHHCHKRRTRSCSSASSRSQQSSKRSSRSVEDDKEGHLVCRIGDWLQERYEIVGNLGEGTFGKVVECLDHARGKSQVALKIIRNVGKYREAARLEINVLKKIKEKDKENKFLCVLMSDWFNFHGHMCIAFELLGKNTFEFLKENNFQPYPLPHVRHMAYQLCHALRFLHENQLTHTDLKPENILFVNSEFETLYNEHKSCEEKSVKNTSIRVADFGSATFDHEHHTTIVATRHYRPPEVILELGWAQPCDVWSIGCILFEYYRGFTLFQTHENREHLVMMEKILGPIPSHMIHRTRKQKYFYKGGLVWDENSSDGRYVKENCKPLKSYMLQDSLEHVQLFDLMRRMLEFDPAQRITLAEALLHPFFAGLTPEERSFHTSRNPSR
T2 sequence (P49760 whole entry): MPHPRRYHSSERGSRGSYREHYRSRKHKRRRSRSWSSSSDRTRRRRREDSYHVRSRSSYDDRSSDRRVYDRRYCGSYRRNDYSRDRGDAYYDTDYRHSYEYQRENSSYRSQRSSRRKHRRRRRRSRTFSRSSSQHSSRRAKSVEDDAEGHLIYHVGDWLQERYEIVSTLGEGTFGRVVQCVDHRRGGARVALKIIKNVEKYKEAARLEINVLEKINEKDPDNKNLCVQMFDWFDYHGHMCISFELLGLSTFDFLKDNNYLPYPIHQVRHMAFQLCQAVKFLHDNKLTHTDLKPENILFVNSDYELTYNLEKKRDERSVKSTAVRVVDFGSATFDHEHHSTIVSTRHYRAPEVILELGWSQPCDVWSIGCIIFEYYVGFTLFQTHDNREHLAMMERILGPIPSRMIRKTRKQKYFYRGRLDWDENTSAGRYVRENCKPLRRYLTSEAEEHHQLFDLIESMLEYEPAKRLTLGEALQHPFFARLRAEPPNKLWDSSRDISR
T1 sequence (Q9HAZ1 whole entry): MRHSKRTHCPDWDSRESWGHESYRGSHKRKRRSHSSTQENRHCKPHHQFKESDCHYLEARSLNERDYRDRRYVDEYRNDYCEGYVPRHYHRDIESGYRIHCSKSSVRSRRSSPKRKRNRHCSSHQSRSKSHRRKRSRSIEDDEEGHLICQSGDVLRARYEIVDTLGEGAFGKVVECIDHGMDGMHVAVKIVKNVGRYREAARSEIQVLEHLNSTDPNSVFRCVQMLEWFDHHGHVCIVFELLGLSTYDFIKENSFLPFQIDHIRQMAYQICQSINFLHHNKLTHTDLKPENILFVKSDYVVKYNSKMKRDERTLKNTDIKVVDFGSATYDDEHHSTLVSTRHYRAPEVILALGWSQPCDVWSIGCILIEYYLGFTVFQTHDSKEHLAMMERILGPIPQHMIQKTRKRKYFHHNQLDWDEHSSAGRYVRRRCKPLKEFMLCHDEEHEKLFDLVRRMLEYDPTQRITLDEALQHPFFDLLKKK
T4 sequence (P49759 whole entry): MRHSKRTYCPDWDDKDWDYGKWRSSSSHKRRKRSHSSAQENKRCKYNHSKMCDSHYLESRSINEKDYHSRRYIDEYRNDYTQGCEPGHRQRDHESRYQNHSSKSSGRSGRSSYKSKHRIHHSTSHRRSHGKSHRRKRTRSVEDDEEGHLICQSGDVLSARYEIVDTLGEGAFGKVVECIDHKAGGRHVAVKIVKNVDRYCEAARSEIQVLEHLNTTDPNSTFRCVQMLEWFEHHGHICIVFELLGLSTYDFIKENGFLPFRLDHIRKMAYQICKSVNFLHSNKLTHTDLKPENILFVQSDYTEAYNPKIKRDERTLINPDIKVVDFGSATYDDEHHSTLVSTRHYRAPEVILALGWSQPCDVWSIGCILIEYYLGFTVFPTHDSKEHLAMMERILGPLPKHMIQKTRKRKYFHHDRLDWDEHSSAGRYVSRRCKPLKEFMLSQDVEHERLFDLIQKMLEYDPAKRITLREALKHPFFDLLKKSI

For the compound `Cc1c2cnccc2c(C)c2c1c1ccccc1n2CCNCc1ccccc1` [compound 164016, 164016], in test [1], the concentration for half-maximal inhibition (IC50) (in general, the concentration that gives 50% inhibition) is 34.8 nM. The inhibition (commonly the change of the read-out against control, counted positive when it falls) at 1 µM came out at 69% at CLK2 [2], 7% at CLK3 [3], 95% in test [4] and 65% on CLK1 [5].
In turn, `Cc1c2cnccc2c(C)c2c1c1ccccc1n2Cc1ccccc1` [compound 322087, 322087] showed an IC50 in test [1] of 121 nM.
The same measure, in the same setting: as for `COc1ccc2c(c1)c1c(C)c3cnccc3c(C)c1n2CC1CO1` (centres unmarked) [compound 150836, 150836], the figure is 101 nM.
As to `Cc1c2c(C(N)=O)nccc2c(C)c2c1c1ccccc1n2Cc1ccccc1` [compound 320613, 320613], testing at 1 µM in test [6] gave an inhibition of 3%.
Consider `COc1ccc2[nH]c3c(C)c4cc[n+]([O-])cc4c(C)c3c2c1` [compound 237069, 237069], for which testing at 1 µM in test [6] gave an inhibition of 47%.
In [1], `Cc1c2cnccc2c(C)c2c1c1ccccc1n2CC1CO1` (centres unmarked) [compound 152731, 152731] registered an IC50 of 38.2 nM. The inhibition at 1 µM on CLK2 [2] is 81%; at CLK3 [3] it was 4%; in test [4], 98%; on CLK1 [5], 86%.
`Cc1c2cnccc2c(C)c2c1c1ccccc1n2CCN(C)C` [compound 150441, 150441]: the values for the inhibition at 0.03 µM on CLK3 [7], at CLK1 [8] and at CLK2 [9] were 1.8%, 7% and 9.1%, respectively. In addition, the IC50 in test [1] is 21.4 nM. The inhibition at 1 µM on CLK2 [2] is 62%; at CLK3 [3] it was 6%; in [4], 98%; at CLK1 [5] it was 75%.
The compound `COc1ccc2[nH]c3c(C)c4ccncc4c(C)c3c2c1` [compound 69187, 69187] yielded an IC50 in test [1] of 98.8 nM.
